Earlier results in patent EP4420767A1, “MODULAR GREEN SOLVENT COMPOSITION FOR PREPARING POLYMERIC MEMBRANES” (Soft Chemicals S.r.l., priority 2023, dated 2024).

Details: DMSO alone

freezing point: 18 °C
Structure (SMILES): C[S+](C)[O-] [DMSO, Dimethyl sulfoxide]
